Data from PubChem BioAssay (NCI).
Values joined by “and” are separate entries in the source; they are usually repeats but may differ in a detail not shown here. Identical values can stand only once.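 Briefly, cells in 96-well plates were exposed to five compound concentrations for 48 h, and endpoints were estimated by linear interpolation. At the GI50, growth is halved. TGI marks complete inhibition of growth.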

Legend:
Test in all cases: NCI anticancer screen, dose series, 48 h
HCT-15 colon = tested on: HCT-15 colon
SR leukemia = tested on: SR leukemia
SN12C renal = tested on: SN12C renal
SNB-75 CNS = tested on: SNB-75 CNS
ACHN renal = tested on: ACHN renal
COLO 205 colon = tested on: COLO 205 colon
HCC-2998 colon = tested on: HCC-2998 colon
A549 NSCLC = tested on: A549 NSCLC
MDA-MB-435 = tested on: MDA-MB-435
CCRF-CEM leukemia = tested on: CCRF-CEM leukemia

| Structure (SMILES) | TGI (HCT-15 colon) [µM] | TGI (SR leukemia) [µM] | TGI (SN12C renal) [µM] | TGI (SNB-75 CNS) | TGI (ACHN renal) [µM] | TGI (COLO 205 colon) | TGI (HCC-2998 colon) | TGI (A549 NSCLC) [µM] | GI50 (HCT-15 colon) [µM] | GI50 (MDA-MB-435) | TGI (MDA-MB-435) | GI50 (SN12C renal) [µM] | GI50 (SNB-75 CNS) [µM] | GI50 (ACHN renal) [µM] | GI50 (COLO 205 colon) [µM] | GI50 (HCC-2998 colon) [µM] | GI50 (CCRF-CEM leukemia) [µM] | TGI (CCRF-CEM leukemia) [µM] | GI50 (A549 NSCLC) [µM] |
| --- | --- | --- | --- | --- | --- | --- | --- | --- | --- | --- | --- | --- | --- | --- | --- | --- | --- | --- | --- |
| CN(C)/C=N/c1nc2c(ncn2C2OC(CO)C(O)C2O)c(=O)[nH]1 (stereo not given) | > 100 | > 100 | > 100 | > 100 µM | > 100 | > 100 µM | > 100 µM | > 100 |  |  |  |  |  |  |  |  |  |  |  |
| CC(C)CCN1c2nc(Nc3cc(F)c(O)c(F)c3)ncc2N(C)C(=O)C1C (stereo not given) | > 49.1 |  | > 91.6 | 44.3 µM | > 59.5 | 29.3 µM | 17.1 µM | 37.6 | 3.5 | 1.29 µM | 55.8 µM | 4.9 | 13.4 | 3.21 | 14.6 | 3.54 | 1.52 | 23.6 | 4.88 |
| O=C(CCn1[nH]c(=O)c(Cl)c(Cl)c1=O)NO | > 100 |  | > 100 | > 100 µM | > 100 | > 100 µM | > 100 µM | > 100 |  |  |  |  |  |  |  |  |  | > 100 |  |
| COC1(OC)CC2C(=O)N(Cc3ccccc3)C1C(S(=O)(=O)c1ccccc1)C2S(=O)(=O)c1ccccc1 (stereo not given) | 14.8 | 85.4 | 25.4 | 27.6 µM | 22.4 | 16.9 µM | 31.1 µM | 75 |  |  |  |  |  |  |  |  |  | 13.7 |  |
| Cc1cc([N+](=O)[O-])ccc1Nc1cccc(Cl)c1C | 35 | 40.4 | 32.1 | 52.7 µM | 41.4 | 31.3 µM | 32.6 µM | 40.2 |  |  |  |  |  |  |  |  |  | 47.2 |  |
| CCCN=C(N)NC#N | 38.2 | 77.2 | > 100 | > 100 µM | > 100 | 32.9 µM | > 100 µM | > 100 |  |  |  |  |  |  |  |  |  |  |  |
| CC1=C(C(=O)Nc2ccccc2)C(c2ccccc2)C(C(=O)Nc2ccccc2)=C(C)N1 | > 100 |  | > 100 | > 100 µM | > 100 | > 100 µM | > 100 µM | > 100 |  |  |  |  |  |  |  |  |  |  |  |
| CC1=NNC(=O)C2CCC(=O)N12 (stereo not given) | > 100 | > 100 | > 100 | > 100 µM | > 100 | > 100 µM | > 100 µM | > 100 |  |  |  |  |  |  |  |  |  | > 100 |  |
| CCOC(=O)C1(C#N)C(c2ccccc2)CC(O)(c2ccc(OC)cc2)C(C(=O)c2ccc(OC)cc2)C1c1ccccc1 (stereo not given) | > 100 | > 100 | > 100 | 95.3 µM | > 100 | > 100 µM | > 100 µM | > 100 |  |  |  |  |  |  |  |  |  | > 100 |  |
| O=[N+]([O-])c1ccc(C2=Nn3cnnc3SC2)o1 | 27.2 | 39.4 | 30.1 | 51.7 µM | 29.4 |  | 29.2 µM | 56.7 |  |  |  |  |  |  |  |  |  | 51.1 |  |
| COc1cc(C(Cc2ccccc2)NC(C)=O)oc(=O)c1 (stereo not given) | > 100 |  | > 100 | > 100 µM | > 100 | > 100 µM | > 100 µM | > 100 |  |  |  |  |  |  |  |  |  | > 100 |  |
| Cc1cc(CC(O)c2ccc(Cl)c(Cl)c2)nc(=O)[nH]1 (stereo not given) | > 100 | > 100 | > 100 | 48.8 µM | > 100 | 85.2 µM |  | 66 |  |  |  |  |  |  |  |  |  | > 100 |  |
| CCOc1ccccc1C=C1c2ccccc2C(=O)c2ccccc21 | > 100 |  | > 100 |  | > 100 | 17.4 µM | 21.9 µM | > 100 |  |  |  |  |  |  |  |  |  | 35.5 |  |
| CCN(CC)CCOc1ccc(-c2nc3cc(Cl)ccc3s2)cc1 | 2.42 |  | 4.79 | 2.65 µM | 2.94 | 2.76 µM |  | 3.47 | 1.19 | 1.65 µM | 3.18 µM | 2.04 | 1.21 | 1.58 | 1.45 |  | 0.565 | 3.14 | 1.75 |
| COC(=O)C(=Cc1cc(OC)ccc1OC)C(=O)OC | > 100 |  | 64.3 | 97 µM | 35.1 | 34.1 µM | 34 µM | 92 |  |  |  |  |  |  |  |  |  | 61.8 |  |
| COc1ccc(C(=O)C(c2ccc(OC)cc2)C2(O)C(=O)Nc3ccc([N+](=O)[O-])cc32)cc1 (stereo not given) | > 100 | > 100 | 24.4 | > 100 µM | > 100 | > 100 µM |  | > 100 |  |  |  |  |  |  |  |  |  | > 100 |  |
| O=c1[nH]c(=O)n(C2OC(CO)C(O)C2O)cc1NN=NCc1ccccc1 (stereo not given) | > 100 | > 100 | > 100 | > 100 µM | > 100 | > 100 µM | > 100 µM | > 100 |  |  |  |  |  |  |  |  |  | > 100 |  |
| COc1cccc(/C=C/c2cc(OC)c(OC)c(OC)c2)c1 | > 100 | > 100 | > 100 | 60.1 µM | > 100 | > 100 µM | > 100 µM | > 100 |  |  |  |  |  |  |  |  |  | > 100 |  |
| CC(=O)Nc1ccc(C(=O)NN2C(=O)CSC2c2ccc([N+](=O)[O-])cc2)cc1 (stereo not given) | > 100 |  | > 100 | > 100 µM | > 100 | > 100 µM | > 100 µM | > 100 |  |  | > 100 µM |  |  |  |  |  |  | > 100 |  |
| CC(=O)c1cccc(NC(=O)C(=O)NNc2n[nH]c(=S)n2N)c1 | 15.9 | 16.1 | 20.3 | 25.2 µM | 19.7 | 27.9 µM | 27.5 µM | 14.5 |  |  |  |  |  |  |  |  |  | 20.3 |  |
| CCN(CC)CC1CCCCCCCCCCC1=O (stereo not given) | > 100 | > 100 | > 100 | > 100 µM | > 100 | > 100 µM | > 100 µM | > 100 |  |  |  |  |  |  |  |  |  | > 100 |  |
| Cc1nc2c(-c3cnc(N)nc3)nc(N3CCOCC3)nc2n1C(C)C | > 100 |  | > 100 | 0.334 µM and 0.272 µM | > 100 | 1.1 µM and 3.68 µM | 4.27 µM and 24.8 µM | 2.66 |  | 0.182 µM and 0.113 µM | 1.32 µM and 1.16 µM |  |  |  |  |  |  |  |  |
| [N-]=[N+]=NC12CC3C4CC5CC3C(C1)C(C5)C4C2 |  | > 100 | > 100 | > 100 µM | > 100 | > 100 µM | > 100 µM | > 100 |  |  |  |  |  |  |  |  |  | > 100 |  |
